Results on 17 molecules are retold here after publication PMC12522106 (Cancer Research Communications, 2025).

Data set [1] has as its system sarcospheres derived from 143B, MG63.3-GFP, and LM7 cell lines. Description: Sarcosphere resazurin metabolic activity, results stated across all three cell lines. The data set is classed as cell-based, human. To be noted: for effect on sarcosphere metabolic activity at Cmax: HDIs in clinical trials, tested at their Cmax, with and without MAP; for effect in initial screen: 48 hours, all three cell lines. The procedure:
(§1) Khanna DVM, PhD (NCI). […] Medium was sterile filtered before use.
(§2) Highly metastatic osteosarcoma cells cultured in monolayers at 50% to 80% confluence were lifted with Accutase (Innovative Cell Technologies, Inc., cat. #NC9839010), resuspended in media, and diluted to the desired concentration. […] Following cell seeding, plates were centrifuged (1,000 g for 10 minutes at 4°C) and then incubated at 37°C with 5% CO2. […] Then, 100 μL drug treatment or vehicle was added to each well. […] Resazurin reduction on day 2 by vehicle-treated sarcospheres was compared with resazurin reduction on day 0 to calculate sarcosphere growth without drug over 2 days in selected experiments.
(§3) Plates were incubated at 37°C in 5% CO2 for 2 or 6 hours.
(§4) Sarcospheres were matured for 24 hours and then treated for 48 hours with media containing 10 µmol/L of each drug and 0.1% DMSO. […] Growth inhibition represents a more clinically translatable measure for screening studies in which a value of 0% represents stable disease since the start of treatment, values of 0% to 100% represent progression in which 100% is the untreated control, and values less than 0% represent regression in which −100% represents blank wells without sarcospheres.
For orientation: Alamar Blue is a resazurin reagent that responds to reducing activity.

Another data set relates to LM7 sarcospheres. Description: Sarcosphere resazurin metabolic activity (initial and secondary screens). The format is cell-based, human. The conditions noted are these: for activity in combination with MAP: Bliss curve fitting, LM7. The procedure:
as §1, §2, §3, §4

Data set [2] concerns monolayers of either established osteosarcoma cell lines or PDX cell lines. Also on record: method as in PMID 30395907, PMID 26601688, PMID 37457661, PMID 35411591. To be noted: cited from earlier work.
The test system of data set [3] is spheroids derived from 65 pediatric patients with various types of cancer. Also on record: method as in PMID 36575299. The conditions noted are these: including seven osteosarcomas; cited from earlier work.
For data set [4] the following is noted: cited from earlier work.

Consider `CC(C)[C@H](C(=O)Nc1ccc(C(=O)NO)cc1)c1ccccc1` [AR-42], for which the “effect on sarcosphere metabolic activity at Cmax” value (“effect … at Cmax” below) in data set [1] was “most effective”.

On to `COc1cc2nccc(Oc3ccc(NC(=O)C4(C(=O)Nc5ccc(F)cc5)CC4)cc3)c2cc1OC` [Cabozantinib, cabozantinib], for which the “rank in initial screen” value in the data set with LM7 sarcospheres (10 μmol/L) was “ranked fifteenth”.

As to `CN(C)Cc1c(C(=O)NCCOc2ccc(C(=O)NO)cc2)oc2ccccc12` [abexinostat], the “effect … at Cmax” value in data set [1] is reported as “weakly inhibited”.

As to `CC(C)C[C@H](NC(=O)[C@H](Cc1ccccc1)NC(=O)c1cnccn1)B(O)O` [bortezomib], the “standing in four independent screens” value in data set [2] is listed as “among the top hits”. Further, in data set [3], the “rank of 75 drugs” value is listed as “nineteenth”.

For `CC(C)C[C@H](NC(=O)[C@H](CCc1ccccc1)NC(=O)CN1CCOCC1)C(=O)N[C@@H](Cc1ccccc1)C(=O)N[C@@H](CC(C)C)C(=O)[C@@]1(C)CO1` [carfilzomib], the “rank of overall mean of the three Cmax/ED50 ratios among the 13 drugs” value in data set [1] (without MAP) was “highest overall mean”. In data set [2], the “standing in four independent screens” value was “among the top hits”.

Consider `N.N.[Cl][Pt][Cl]` [cisplatin], for which, in data set [1] (10 μmol/L), the “effect in initial screen” value is “no detectable effect”.

With `COc1cccc2c1C(=O)c1c(O)c3c(c(O)c1C2=O)C[C@@](O)(C(=O)CO)C[C@@H]3O[C@H]1C[C@H](N)[C@H](O)[C@H](C)O1` [doxorubicin], in data set [1] (10 μmol/L), the “effect in initial screen” value is “effective”.

As for `CO[C@H]1C[C@@H]2CC[C@@H](C)[C@@](O)(O2)C(=O)C(=O)N2CCCC[C@H]2C(=O)O[C@H]([C@H](C)C[C@@H]2CC[C@@H](OCCO)[C@H](OC)C2)CC(=O)[C@H](C)/C=C(\C)[C@@H](O)[C@@H](OC)C(=O)[C@H](C)C[C@H](C)/C=C/C=C/C=C/1C` [everolimus], in data set [1] (10 μmol/L), the “effect in initial screen” value was “little or no effect”.

In the case of `CCN(CC)Cc1ccc2cc(COC(=O)Nc3ccc(C(=O)NO)cc3)ccc2c1` [givinostat], the “effect … at Cmax” value in data set [1] is “weakly inhibited”.

For `Nc1ccccc1NC(=O)c1ccc(CNc2nccc(-c3cccnc3)n2)cc1` [mocetinostat], in data set [1], the “effect … at Cmax” value is given as “weakly inhibited”.

Turning to `Cc1[nH]c2ccccc2c1CCNCc1ccc(/C=C/C(=O)NO)cc1` [panobinostat], the “standing in four independent screens” value in data set [2] is given as “among the top hits”. Further, in data set [3], the “rank of 75 drugs” value is listed as “fifteenth”.

For the molecule `Cc1ccc(C(=O)Nc2ccc(CN3CCN(C)CC3)c(C(F)(F)F)c2)cc1C#Cc1cnc2cccnn12` [ponatinib], in the data set with LM7 sarcospheres, the “activity in combination with MAP” value is recorded as “additive-to-synergistic activity”.

For the molecule `CCCCc1nc2cc(/C=C/C(=O)NO)ccc2n1CCN(CC)CC` [pracinostat], in data set [1], the “effect … at Cmax” value was “weakly inhibited”.

In the case of `Cn1cc(CNCC2CCN(c3ncc(C(=O)NO)cn3)CC2)c2ccccc21` [quisinostat], the “effect … at Cmax” value in data set [1] is on record as “weakly inhibited”.

Regarding `CN(C)Cc1ccc(S(=O)(=O)n2ccc(/C=C/C(=O)NO)c2)cc1` [resminostat], in data set [1], the “effect … at Cmax” value is listed as “most effective”.

The Cmax is the peak of the concentration-time curve. Regarding `CC[C@@]1(O)C(=O)OCc2c1cc1n(c2=O)Cc2cc3c(CN(C)C)c(O)ccc3nc2-1` [topotecan], the “rank in initial screen” value in data set [1] (10 μmol/L) is given as “ranked eighth”. Besides, in data set [4], the Cmax is 6.5 nM.

`O=C(CCCCCCC(=O)Nc1ccccc1)NO` [vorinostat]: in the data set on LM7 sarcospheres, the “activity in combination with MAP” value is “additive-to-synergistic activity”.
